Laboratory results from patent publication US20110257170A1, “4-MORPHOLINO-PYRIDO[3,2-D]PYRIMIDINES” (MERCK SERONO SA, priority 2008, published 2011).

Columns and labels:
[1] = system: T1, Human recombinant GST-PI3K; assay: PI3K lipid phosphorylation scintillation proximity assay (neomycin-coated SPA beads); assay type: biochemical; conditions: 120 min at room temperature, isoform not stated
T1 construct: fused on or other part: GST tag
From the text: The efficacy of compounds of the invention in inhibiting the PI3K induced-lipid phosphorylation may be tested in the following binding assay. The assay combines the scintillation proximity assay technology (SPA, Amersham) with the capacity of neomycin (a polycationic antibiotic) to bind phospholipids with high affinity and specificity. The Scintillation Proximity Assay is based on the properties of weakly emitting isotopes (such as ^3H, ^125I, ^33P). Coating SPA beads with neomycin allows the detection of phosphorylated lipid substrates after incubation with recombinant PI3K and radioactive ATP in the same well, by capturing the radioactive phospholipids to the SPA beads through their specific binding to neomycin. […] After precipitation of the neomycin-coated PVT SPA beads for 5 minutes at 1500×g, radioactive Ptdlns(3)P is quantified by scintillation counting in a Wallac MicroBeta™ plate counter. […]

Row | Compound | melting point | IC50 [1] [µM]
1 | COC(=O)c1cc(Cl)c2nc(Cl)nc(N3CCOCC3)c2n1 [Example E-1, Methyl 2,8-dichloro-4-morpholin-4-yl-pyrido[3,2-d]pyrimidine-6-carboxylate] | 212 to 213 °C (dec.) | 
2 | Cc1ccc2nc(Cl)nc(N3CCOCC3)c2n1 [Example E-34, 2-Chloro-6-methyl-4-morpholin-4-ylpyrido[3,2-d]pyrimidine] |  | 8.61
